Data as given in patent US11534457B2, “Use of dextran sulfate” (priority 2017, dated 2022).

System: Human umbilical vein endothelial cells (HUVECs)
Test: Gene expression array and pathway analysis, HUVECs
Assay type: cell-based
Procedure: For each cell line, n=8×25 cm^2 culture flasks were set up. Two flasks were harvested for each cell type on the day of treatment (24 hours after seeding). This represents the Day0 time point. From the remaining flasks, three flasks were treated with Control Medium and three were treated with Culture Medium (CM) containing LMW-DS to give a final concentration of 0.01 mg/ml. Cells from the treated flasks were collected after 48 hours. Therefore the collected data represent (a) untreated cells (Day0 Controls and Day2 Controls) and (b) cells treated with LMW-DS for 48 hours (Day2 LMW-DS treated).
25 cm^2 flasks were coated by adding 2 ml per flask of a solution of 50 μg/ml poly-d-lysine in Hank's balanced salt solution (HBSS) and incubating overnight at 37° C. in the dark. Flasks were washed with cell culture water and air-dried for 30 min in the dark. Flasks were coated by adding 1 ml per flask of a solution of 25 μg/ml laminin in phosphate-buffered saline (PBS) and incubating for 2 hour at 37° C. in the dark. The laminin flasks were washed with PBS three times before plating cells.
Medium 200+Large Vessel Endothelial Supplement (M200+LVES) additive (1:50) was prepared and pre-warmed to 37° C. Cells were thawed in a 37° C. water bath for no longer than 2 min and gently transferred into a 50 ml tube containing 20 ml Dulbecco's Modified Eagle Medium, Nutrient Mixture F-12 (DMEM-F12). The cell suspension was mixed by inverting the tube carefully twice. Cells were spun at 400×g for 10 minutes. Supernatant removed and cells were resuspended in 10 ml of culture media (M200+LVES additive).
Cells were counted with the Cellometer. 1,000,000 cells/flask were seeded in 25 cm^2 flasks (n=8) and medium was topped up to a total of 5 ml per flask. Cells were incubated at 37° C. with 5% CO2. Cells were allowed to settle for 24 hours before LMW-DS treatment.
LMW-DS was provided at a stock concentration of 20 mg/ml and was kept in a temperature monitored refrigerator at 4° C. A fresh […]LMW-DS stock (1.0 mg/ml) was prepared in sterile DMEM-F12. The concentrated drug stock was sterile filtered and added to the respective culture media (19.6 ml CM and 0.4 ml LMW-DS stock solution). The Control was made using 19.6 ml CM and 0.4 ml of DMEM-F12. LMW-DS and CM were added to the respective flasks (5 ml each) to reach the 0.01 mg/ml concentration of LMW-DS in each dish with a total of 10 ml CM each.
CM was aspirated into a clean and labelled 15 ml Falcon tube. The flasks (without culture medium) were placed into the −80° C. freezer for 30 minutes. The CM in the Falcon tubes were spun at 3000×g for 5 minutes. Supernatant was removed and the small pellet was re-suspended in 2.5 ml Trizol:Water (4:1) solution at room temperature (RT, […]).
Two aliquots of 1 ml lysate was removed from each sample and 200 μl of chloroform was added to each (0.2 ml of chloroform per 1 ml of TRIzol Reagent used during the cell lysis step) and the tube was shaken vigorously. Samples were stored at RT for 2-3 minutes and subsequently centrifuged at 12,000×g for 15 minutes at 4° C.
The expression data were downloaded into separate files for each cell line. The ‘Background corrected’ expression is the data from the “gProcessedSignal” of the arrays that is the result of the background signal extracted from the actual signal of the relevant probe. This is the most often used variable in array analysis. The background corrected signal was log 2 transformed for all samples for statistical analysis. To reduce the false discovery rate in the samples, the signals that were below ‘expression level’ were removed. The ‘below expression’ level was set at 5 for the log 2 transformed expression values.
Based on the expression pattern of the Control probes on each array it was decided to carry out Median Centering for all arrays before analysis to reduce the variability of the results. […]

Substance: low molecular weight dextran sulfate [LMW-DS]
- aggregate effect on adhesion and angiogenesis (1 molecule, ADAM11) (0.01 mg/ml, 48 h): adhesion would not be affected but angiogenesis would be activated
- differential regulation of the 197 genes regulating cell attachment (0.01 mg/ml, 48 h): none are differentially regulated
- modulation of the effects of oxidative stress on mitochondria (0.01 mg/ml, 48 h): no significant modulation
- number of genes differentially expressed, D0 control vs D2 LMW-DS treated (0.01 mg/ml, 48 h): 1779 genes
- number of genes differentially expressed, D2 control vs D2 LMW-DS treated (0.01 mg/ml, 48 h): 76 genes
- number of genes: abolished nutrient effect / no effect (0.01 mg/ml, 48 h): 67
- number of genes: abolished nutrient effect / significant downregulation (0.01 mg/ml, 48 h): 4
- number of genes: abolished nutrient effect / significant upregulation (0.01 mg/ml, 48 h): 11
- number of genes: abolished nutrient effect / total (0.01 mg/ml, 48 h): 82
- number of genes: enhanced response to nutrients / significant downregulation (0.01 mg/ml, 48 h): 120
- number of genes: enhanced response to nutrients / significant upregulation (0.01 mg/ml, 48 h): 229
- number of genes: enhanced response to nutrients / total (0.01 mg/ml, 48 h): 349
- number of genes: not different from control / significant downregulation (0.01 mg/ml, 48 h): 167
- number of genes: not different from control / significant upregulation (0.01 mg/ml, 48 h): 1326
- number of genes: not different from control / total (0.01 mg/ml, 48 h): 1493
- number of genes: total / no effect (0.01 mg/ml, 48 h): 67
- number of genes: total / significant downregulation (0.01 mg/ml, 48 h): 291
- number of genes: total / significant upregulation (0.01 mg/ml, 48 h): 1566
- number of genes: total / total (0.01 mg/ml, 48 h): 1924
- upstream regulator HGF: activation z-score (D2 LMW-DS treatment): 3.194
- upstream regulator HGF: predicted activation state relative D2 control (D2 LMW-DS treatment): Activated relative to control
- upstream regulator TGFβ1: activation z-score (D2 LMW-DS treatment): 1.429
- upstream regulator TGFβ1: predicted activation state relative D2 control (D2 LMW-DS treatment): Activated relative to control
- upstream regulator VEGF: activation z-score (D2 LMW-DS treatment): 3.432
- upstream regulator VEGF: predicted activation state relative D2 control (D2 LMW-DS treatment): Activated relative to control
